Patent publication US6734163B2, “Compositions and methods for inhibiting cellular proliferation” (EntreMed, Inc., priority 1997, dated 2004)
Entries after “also recorded” stand apart in the source; their conditions may differ. Where two headings read alike, the source gives them in different places.

System: human umbilical vein endothelial (HUVE) cells
Assay: bFGF-induced proliferation of HUVE cells (uridine incorporation)
Assay type: cell-based
Conditions: for antiproliferative activity, plasma TFPI compared with HepG2 TFPI: HUVE cell proliferation assay, FIG. 4; for Effect on Proliferation: bFGF 10 ng/ml, 48 hours, HUVE cells
Procedure: Proliferation assays familiar to those skilled in the art using human umbilical vein endothelial (HUVE) cells were used to determine the effect of TFPI on bFGF-induced proliferation of human umbilical vein endothelial cells.
The proliferation assay involved the routine culturing of human umbilical vein endothelial (HUVE) cells to confluency in EGM media. The cells were trypsinized and plated in a 96-well plate at 5000 cells per well per 100 μL EBM media. The cells were allowed to adhere to the plate for at least 2 hours. Next, bFGF at 10 ng/ml and TFPI at various concentrations were added to the wells. The cells were cultured for 48 hours after which cell proliferation was determined using a standard uridine incorporation method.
Proliferation assays using HUVE cells, as described in Example 1, were used to determine the effect of heparin on TFPI inhibition of bFGF-induced proliferation. The purpose of this study was to determine whether heparin was able to neutralize the antiproliferative activity of TFPI.
TFPI was pre-incubated with equimolar concentrations of heparin and with concentrations of heparin that were five-fold in excess of the concentration of TFPI. The results are summarized below and are presented graphically in FIGS. 5a and 5b.
Cell proliferation assays, as described in Example 1, were conducted to determine the relative potency of native TFPI versus recombinant TFPI.
Cell proliferation assays, as described in Example 1, were conducted using full length recombinant TFPI, Platelet Factor 4 (PF-4), and recombinant Kringle 1-3 of Angiostatin™ peptide. Both PF-4 and Angiostatin™ peptide are known endogenous inhibitors of angiogenesis. PF-4 is a protein involved in the blood coagulation cascade and is referenced as an inhibitor of angiogenesis by Maione, T. et al. in the article “Inhibition of Angiogenesis by Recombinant Human Platelet Factor-4 and Related Peptides” Science 247:77 (1990). Angiostatin is a fragment of plasminogen and its inhibitory effect on angiogenesis is described by Cao, Y. et al. in the article “Kringle Domains of Human Angiostatin” J. Biol. Chem. 271:1 (1996).
PF-4 and TFPI were tested for inhibition of human umbilical vein endothelial cell (HUVEC) proliferation. Angiostatin™ peptide was tested for the inhibition of bovine capillary endothelial (BCE) proliferation.
Cell proliferation assays, as described above in Example 1, were conducted using fragments of recombinant TFPI containing the following domains: Kunitz-1, Kunitz-2, or Kunitz-3.

[1] = Example 3, native versus recombinant TFPI, read-out: Fifty percent inhibition of the bFGF-induced proliferation of HUVE cells

| Substance | antiproliferative activity, plasma TFPI compared with HepG2 TFPI | Effect on Proliferation | IC50 [1] [nM] | further results |
| --- | --- | --- | --- | --- |
| PF-4: Platelet Factor 4, protein of the blood coagulation cascade, known endogenous inhibitor of angiogenesis [reference compound] | – | – | – | IC50 (Example 4, read-out: concentration required for 50% inhibition of HUVE cell proliferation): 1250 nM |
| Purified From HepG2 cells: TFPI purified from HepG2 cells containing full length and carboxyl-terminal lacking molecules | comparable activities | Inhibition of Proliferation | – | – |
| Purified From Human Plasma: full length, fully glycosylated TFPI (molecular weight 43,000) purified from human plasma | comparable activities | Inhibition of Proliferation | 75 | – |
| Recombinant, Full Length: full length, partially glycosylated TFPI (molecular weight 35,000) produced recombinantly | – | Inhibition of Proliferation | 150 | potency relative to recombinant PF-4 (HUVE cell proliferation, 50% inhibition compared): approximately ten times more potent; IC50 (HUVEC proliferation, Example 4 table, read-out: Concentration for 50% Inhibition): ~125 nM; activity relative to recombinant Kringle 1-3 of angiostatin (TFPI on HUVE cells versus Kringle 1-3 on BCE cells): more active |
| TFPI: tissue factor pathway inhibitor, source not specified in the heparin experiment (SEQ ID No. 1) | – | – | – | Antiproliferative Activity of TFPI (effect of heparin) (TFPI pre-incubated with equimolar heparin): did not lose its antiproliferative activity; also recorded: No Effect; Antiproliferative Activity of TFPI (effect of heparin) (TFPI pre-incubated with heparin five-fold in excess of TFPI): did not lose its antiproliferative activity; also recorded: No Effect |
